From ChEMBL document CHEMBL5260833, “An overview of quinazolines: Pharmacological significance and recent developments” (Eur J Med Chem, 2018)

What was measured:
Thymidylate synthase = Thymidylate synthase (Homo sapiens, UniProt P04818); experiment: Inhibition of human TS
[1] = Inhibition of Lacticaseibacillus casei TS
[2] = Binding affinity to AT1 in rabbit aorta; format: tissue-based, Oryctolagus cuniculus
Rattus norvegicus [3] = experiment: Inhibition of AII induced mean arterial blood pressure in rat assessed as vasoconstrictor at 1 mg/kg, po; format: functional
Rattus norvegicus [4] = experiment: Anticonvulsant activity in PTZ induced rat at 50 mg/kg, sc measured after 2 to 4 mins relative to control; format: functional; conditions: time 2-4 min
Rattus norvegicus [5] = experiment: Anticonvulsant activity in rat at 50 mg/kg, ip measured after 1 hrs by MES test relative to control; format: functional
Rattus norvegicus [6] = experiment: Anticonvulsant activity in albino rat at 30 mg/kg, ip measured after 1 hrs by MES test; format: functional

Sequence of Thymidylate synthase (P04818 whole entry): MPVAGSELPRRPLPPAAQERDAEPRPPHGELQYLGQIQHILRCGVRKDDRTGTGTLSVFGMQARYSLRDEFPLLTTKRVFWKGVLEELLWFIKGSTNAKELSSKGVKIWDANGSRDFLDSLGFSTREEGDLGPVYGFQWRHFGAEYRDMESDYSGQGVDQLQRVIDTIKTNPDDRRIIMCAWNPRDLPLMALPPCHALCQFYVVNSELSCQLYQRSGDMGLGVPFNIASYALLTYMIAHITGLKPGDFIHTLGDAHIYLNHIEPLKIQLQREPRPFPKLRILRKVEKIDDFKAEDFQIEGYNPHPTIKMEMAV

Row | SMILES | IC50 [2] | Activity (Rattus norvegicus [4]) | Activity (Rattus norvegicus [5]) | also measured
1 | Cc1ccc2nc(N)[nH]c(=O)c2c1Sc1ccc(C(=O)N[C@H](C)c2ccccc2)cc1 | – | – | – | IC50 (Thymidylate synthase): 3 nM; IC50 [1]: 200 nM
2 | CCCc1nc2ccc(C)cc2c(=O)n1Cc1ccc(-c2ccccc2-c2nn[nH]n2)cc1 | ≥ 1.3 nM | – | – | –
3 | CCCCc1nc2ccc([C@@]3(C(=O)O)C[C@H]4CCCN4O3)cc2c(=O)n1Cc1ccc(-c2ccccc2-c2nnn[nH]2)cc1 | – | – | – | Activity (Rattus norvegicus [3]): 55 mmHg
4 | CCCCc1nc2ccc([C@H]3C[C@H]4CC[C@H](C)N4O3)cc2c(=O)n1Cc1ccc(-c2ccccc2-c2nnn[nH]2)cc1 | – | – | – | Activity (Rattus norvegicus [3]): 55 mmHg
5 | Cc1ccc2nc(N)[nH]c(=O)c2c1Sc1ccc(C(=O)N[C@H](CO)c2ccccc2)cc1 | – | – | – | IC50 (Thymidylate synthase): 3 nM; IC50 [1]: 200 nM
6 | CCCCc1nc2ccc(NC(C)=O)cc2c(=O)n1Cc1ccc(-c2ccccc2-c2nn[nH]n2)cc1 | ≥ 1.3 nM | – | – | –
7 | CCc1nc2ccc(C)cc2c(=O)n1Cc1ccc(-c2ccccc2-c2nn[nH]n2)cc1 | ≥ 1.3 nM | – | – | –
8 | COC(=O)[C@@H](NC(=O)c1ccc(Sc2c(C)ccc3nc(N)nc(O)c23)cc1)c1ccccc1 | – | – | – | IC50 (Thymidylate synthase): 3 nM; IC50 [1]: 200 nM
9 | Cc1nc2ccc(Br)cc2c(=O)n1NCc1nnc(NCC2C(=O)NC(=S)NC2=O)s1 | – | 60% | 60% | –
10 | COC(=O)[C@@H](NC(=O)c1ccc(Sc2c(C)ccc3nc(N)nc(O)c23)cc1)c1cccc(O)c1 | – | – | – | IC50 (Thymidylate synthase): 3 nM; IC50 [1]: 200 nM
11 | Cc1nc2ccc(Br)cc2c(=O)n1NCC(=O)NNC(=S)NCC1C(=O)NC(=O)NC1=O | – | 40% | 40% | –
12 | CCCCc1nc2cc(Cl)ccc2c(=O)n1Cc1ccc(-c2ccccc2-c2nn[nH]n2)cc1 | ≥ 1.3 nM | – | – | –
13 | COC(=O)[C@H](Cc1ccccc1)NC(=O)c1ccc(Sc2c(C)ccc3nc(N)[nH]c(=O)c23)cc1 | – | – | – | IC50 (Thymidylate synthase): 3 nM; IC50 [1]: 200 nM
14 | CCCCc1nc2ccc([C@]3(CC)C[C@H]4CCCN4O3)cc2c(=O)n1Cc1ccc(-c2ccccc2-c2nn[nH]n2)cc1 | – | – | – | Activity (Rattus norvegicus [3]): 55 mmHg
15 | Cc1nc2ccccc2c(=O)n1NCc1nnc(NCC2C(=O)NC(=O)NC2=O)s1 | – | 60% | 60% | –
16 | Cc1nc2ccc(I)cc2c(=O)n1NCc1nnc(NCC2C(=O)NC(=O)NC2=O)s1 | – | 60% | 60% | –
17 | Cc1nc2ccccc2c(=O)n1NCC(=O)NNC(=S)NCC1C(=O)NC(=S)NC1=O | – | 40% | 40% | –
18 | CCCCc1nc2ccc([C@@]3(C(=O)N(C)C)C[C@H]4CCCN4O3)cc2c(=O)n1Cc1ccc(-c2ccccc2-c2nnn[nH]2)cc1 | – | – | – | Activity (Rattus norvegicus [3]): 55 mmHg
19 | CCCCc1nc2ccc([C@H]3C[C@@]4(C)CCCCN4O3)cc2c(=O)n1Cc1ccc(-c2ccccc2-c2nnn[nH]2)cc1 | – | – | – | Activity (Rattus norvegicus [3]): 55 mmHg
20 | Cc1nc2ccc(I)cc2c(=O)n1NCC(=O)NNC(=S)NCC1C(=O)NC(=S)NC1=O | – | 40% | 40% | –
21 | Cc1nc2c(Br)cc(Br)cc2c(=O)n1NCc1nnc(N)s1 | – | 40% | 40% | –
22 | Cc1nc2c(Br)cc(Br)cc2c(=O)n1NCC(=O)NNC(=S)NCC1C(=O)NC(=O)NC1=O | – | 40% | 40% | –
23 | CCCCc1nc2ccc([N+](=O)[O-])cc2c(=O)n1Cc1ccc(-c2ccccc2-c2nn[nH]n2)cc1 | ≥ 1.3 nM | – | – | –
24 | CCCCc1nc2ccc(C)cc2c(=O)n1Cc1ccc(-c2ccccc2C(=O)O)cc1 | 10 nM | – | – | –
25 | Cc1nc2ccc(Br)cc2c(=O)n1NCc1nnc(N)s1 | – | 40% | 40% | –

Row | SMILES | IC50 [2] | Activity (Rattus norvegicus [4]) | Activity (Rattus norvegicus [5]) | also measured
26 | Cc1nc2ccccc2c(=O)n1NCc1nnc(N)s1 | – | 40% | 40% | –
27 | COC(=O)c1cccc([C@H](NC(=O)c2ccc(Sc3c(C)ccc4nc(N)nc(O)c34)cc2)C(=O)OC)c1 | – | – | – | IC50 (Thymidylate synthase): 3 nM; IC50 [1]: 200 nM
28 | CCCCc1nc2ccc(N)cc2c(=O)n1Cc1ccc(-c2ccccc2-c2nn[nH]n2)cc1 | ≥ 1.3 nM | – | – | –
29 | COC(=O)[C@@H](NC(=O)c1ccc(Sc2c(C)ccc3nc(N)[nH]c(=O)c23)s1)c1ccccc1 | – | – | – | IC50 (Thymidylate synthase): 3 nM; IC50 [1]: 200 nM
30 | COC(=O)[C@H](Cc1c[nH]c2ccccc12)NC(=O)c1ccc(Sc2c(C)ccc3nc(N)[nH]c(=O)c23)cc1 | – | – | – | IC50 (Thymidylate synthase): 3 nM; IC50 [1]: 200 nM
31 | CCCCc1nc2ccc([C@@]3(c4ccccc4)C[C@H]4CCCN4O3)cc2c(=O)n1Cc1ccc(-c2ccccc2-c2nnn[nH]2)cc1 | – | – | – | Activity (Rattus norvegicus [3]): 55 mmHg
32 | Cc1nc2c(Br)cc(Br)cc2c(=O)n1NCC(=O)NNC(N)=S | – | 20% | 20% | –
33 | COC(=O)[C@H](Cc1ccc(N)cc1)NC(=O)c1ccc(Sc2c(C)ccc3nc(N)[nH]c(=O)c23)cc1 | – | – | – | IC50 (Thymidylate synthase): 3 nM; IC50 [1]: 200 nM
34 | Cc1ccc2nc(N)nc(O)c2c1Sc1ccc(C(=O)N[C@H](C(=O)O)c2cccc(C(=O)O)c2)cc1 | – | – | – | IC50 (Thymidylate synthase): 3 nM; IC50 [1]: 200 nM
35 | Cc1ccc2nc(N)nc(O)c2c1Sc1ccc(C(=O)N[C@H](C(=O)O)c2cccc(O)c2)cc1 | – | – | – | IC50 (Thymidylate synthase): 3 nM; IC50 [1]: 200 nM
36 | Cc1nc2c(Br)cc(Br)cc2c(=O)n1NCc1nnc(NCC2C(=O)NC(=O)NC2=O)s1 | – | 60% | 60% | –
37 | CCCCc1nc2ccc(OC)cc2c(=O)n1Cc1ccc(-c2ccccc2-c2nn[nH]n2)cc1 | ≥ 1.3 nM | – | – | –
38 | CCCCc1nc2c(C)cccc2c(=O)n1Cc1ccc(-c2ccccc2C(=O)O)cc1 | 370 nM | – | – | –
39 | CCCCc1nc2ccc([C@@]3(C(=O)N4CCCCC4)C[C@H]4CCCN4O3)cc2c(=O)n1Cc1ccc(-c2ccccc2-c2nnn[nH]2)cc1 | – | – | – | Activity (Rattus norvegicus [3]): 55 mmHg
40 | Cc1nc2ccc(Br)cc2c(=O)n1NCC(=O)NNC(N)=S | – | 20% | 20% | inhibition in vivo at 30 mg/kg (Rattus norvegicus [6]): 30%
41 | COC(=O)[C@H](NC(=O)c1ccc(Sc2c(C)ccc3nc(N)[nH]c(=O)c23)cc1)c1ccccc1 | – | – | – | IC50 (Thymidylate synthase): 3 nM; IC50 [1]: 200 nM
42 | Cc1ccc2nc(N)nc(O)c2c1Sc1ccc(C(=O)N[C@H](C(=O)O)c2ccccc2)cc1 | – | – | – | IC50 (Thymidylate synthase): 3 nM; IC50 [1]: 200 nM
43 | CCCCc1nc2ccc([C@@]3(C(=O)N4CCCC4)C[C@H]4CCCN4O3)cc2c(=O)n1Cc1ccc(-c2ccccc2-c2nnn[nH]2)cc1 | – | – | – | Activity (Rattus norvegicus [3]): 55 mmHg
44 | COC(=O)[C@H](Cc1ccc(O)cc1)NC(=O)c1ccc(Sc2c(C)ccc3nc(N)[nH]c(=O)c23)cc1 | – | – | – | IC50 (Thymidylate synthase): 3 nM; IC50 [1]: 200 nM
45 | CCCCc1nc2ccc(F)cc2c(=O)n1Cc1ccc(-c2ccccc2-c2nn[nH]n2)cc1 | ≥ 1.3 nM | – | – | –
46 | Cc1nc2ccc(Br)cc2c(=O)n1NCc1nnc(NCC2C(=O)NC(=O)NC2=O)s1 | – | 60% | 60% | –
47 | Cc1nc2ccc(I)cc2c(=O)n1NCC(=O)NNC(N)=S | – | 20% | 20% | –
48 | CS(C)(=O)=O [DIMETHYL SULFONE] | 2.6 nM | – | – | –
49 | Cc1nc2ccccc2c(=O)n1NCC(=O)NNC(=S)NCC1C(=O)NC(=O)NC1=O | – | 40% | 40% | –
50 | COC(=O)[C@H](Cc1ccc(O)c(O)c1)NC(=O)c1ccc(Sc2c(C)ccc3nc(N)[nH]c(=O)c23)cc1 | – | – | – | IC50 (Thymidylate synthase): 3 nM; IC50 [1]: 200 nM

Row | SMILES | IC50 [2] | Activity (Rattus norvegicus [4]) | Activity (Rattus norvegicus [5]) | also measured
51 | CCCCc1nc2cccc(F)c2c(=O)n1Cc1ccc(-c2ccccc2-c2nn[nH]n2)cc1 | ≥ 1.3 nM | – | – | –
52 | CCOC(=O)CNn1c(C)nc2ccccc2c1=O | – | 10% | 10% | inhibition in vivo at 30 mg/kg (Rattus norvegicus [6]): 20%
53 | CCCCc1nc2ccc(Cl)cc2c(=O)n1Cc1ccc(-c2ccccc2-c2nn[nH]n2)cc1 | ≥ 1.3 nM | – | – | –
54 | Cc1nc2ccc(Br)cc2c(=O)n1NCC(=O)NNC(=S)NCC1C(=O)NC(=S)NC1=O | – | 40% | 40% | –
55 | CCCCCc1nc2ccc(C)cc2c(=O)n1Cc1ccc(-c2ccccc2-c2nn[nH]n2)cc1 | ≥ 1.3 nM | – | – | –
56 | Cc1nc2ccccc2c(=O)n1NCc1nnc(NCC2C(=O)NC(=S)NC2=O)s1 | – | 60% | 60% | –
57 | Cc1nc2ccc(I)cc2c(=O)n1NCc1nnc(NCC2C(=O)NC(=S)NC2=O)s1 | – | 60% | 60% | –
58 | O=C1N=C([O-])NC1(c1ccccc1)c1ccccc1.[Na+] [PHENYTOIN SODIUM] | – | 80% | 80% | inhibition in vivo at 30 mg/kg (Rattus norvegicus [6]): 80%
59 | CCCCc1nc2cc(OC)c(OC)cc2c(=O)n1Cc1ccc(-c2ccccc2-c2nn[nH]n2)cc1 | ≥ 1.3 nM | – | – | –
60 | Cc1nc2c(Br)cc(Br)cc2c(=O)n1NCc1nnc(NCC2C(=O)NC(=S)NC2=O)s1 | – | 60% | 60% | –
61 | CCCCc1nc2cc3ccccc3cc2c(=O)n1Cc1ccc(-c2ccccc2C(=O)O)cc1 | 10 nM | – | – | –
62 | CCCCc1nc2ccc(C)cc2c(=O)n1Cc1ccc(-c2ccccc2-c2nn[nH]n2)cc1 | ≥ 1.3 nM | – | – | –
63 | Cc1ccc2nc(N)[nH]c(=O)c2c1Sc1ccc(C(=O)Nc2cccc(C(=O)O)c2)cc1 | – | – | – | IC50 (Thymidylate synthase): 3 nM; IC50 [1]: 200 nM
64 | COC(=O)c1cccc(NC(=O)c2ccc(Sc3c(C)ccc4nc(N)[nH]c(=O)c34)cc2)c1 | – | – | – | IC50 (Thymidylate synthase): 3 nM; IC50 [1]: 200 nM
65 | Cc1nc2ccc(I)cc2c(=O)n1NCc1nnc(N)s1 | – | 40% | 40% | –
66 | CCCCc1nc2ccccc2c(=O)n1Cc1ccc(-c2ccccc2-c2nn[nH]n2)cc1 | ≥ 1.3 nM | – | – | –
67 | CCCCc1nc2ccc(C(F)(F)F)cc2c(=O)n1Cc1ccc(-c2ccccc2-c2nn[nH]n2)cc1 | ≥ 1.3 nM | – | – | –
68 | CCCCc1nc2ccccc2c(=O)n1Cc1ccc(-c2ccccc2C(=O)O)cc1 | 92 nM | – | – | –
69 | CCOC(=O)CNn1c(C)nc2ccc(Br)cc2c1=O | – | 10% | 10% | inhibition in vivo at 30 mg/kg (Rattus norvegicus [6]): 20%
70 | CCCCc1nc2cccc(C)c2c(=O)n1Cc1ccc(-c2ccccc2C(=O)O)cc1 | 370 nM | – | – | –
71 | CCCCc1nc2ccc(I)cc2c(=O)n1Cc1ccc(-c2ccccc2-c2nn[nH]n2)cc1 | ≥ 1.3 nM | – | – | –
72 | Cc1nc2ccccc2c(=O)n1NCC(=O)NNC(N)=S | – | 20% | 20% | inhibition in vivo at 30 mg/kg (Rattus norvegicus [6]): 30%
73 | CCCCC(=O)Nc1ccc2nc(CCCC)n(Cc3ccc(-c4ccccc4-c4nn[nH]n4)cc3)c(=O)c2c1 | ≥ 1.3 nM | – | – | –
74 | CCCCc1nc2cc(C)ccc2c(=O)n1Cc1ccc(-c2ccccc2C(=O)O)cc1 | 370 nM | – | – | –
75 | Cc1ccc2nc(N)[nH]c(=O)c2c1Sc1ccc(C(=O)N[C@@H](Cc2ccccc2)C(=O)O)cc1 | – | – | – | IC50 (Thymidylate synthase): 3 nM; IC50 [1]: 200 nM
